Key:
[1] = target: Histamine H4 receptor (Homo sapiens) (UniProt Q9H3N8); assay: Displacement of [3H]histamine from human H4 receptor expressed in monkey COS7 cells at 1 uM; assay type: cell-based; details: COS-7
[2] = target: Histamine H2 receptor (Homo sapiens) (UniProt P25021); assay: Displacement of [3H]tiotidine from human H2 receptor expressed in monkey COS7 cells at 10 uM; assay type: cell-based; details: COS-7
[3] = target: Histamine H4 receptor (Homo sapiens) (UniProt Q9H3N8); assay: Displacement of [3H]histamine from human H4 receptor expressed in monkey COS7 cells at 10 uM; assay type: cell-based; details: COS-7
Histamine H3 receptor [4] = target: T1, Histamine H3 receptor (Homo sapiens, UniProt Q9Y5N1); assay: Displacement of [3H]N-alpha-methylhistamine from human cloned histamine H3 receptor expressed in monkey COS7 cells; assay type: cell-based, COS-7
T1 sequence (Q9Y5N1 whole entry): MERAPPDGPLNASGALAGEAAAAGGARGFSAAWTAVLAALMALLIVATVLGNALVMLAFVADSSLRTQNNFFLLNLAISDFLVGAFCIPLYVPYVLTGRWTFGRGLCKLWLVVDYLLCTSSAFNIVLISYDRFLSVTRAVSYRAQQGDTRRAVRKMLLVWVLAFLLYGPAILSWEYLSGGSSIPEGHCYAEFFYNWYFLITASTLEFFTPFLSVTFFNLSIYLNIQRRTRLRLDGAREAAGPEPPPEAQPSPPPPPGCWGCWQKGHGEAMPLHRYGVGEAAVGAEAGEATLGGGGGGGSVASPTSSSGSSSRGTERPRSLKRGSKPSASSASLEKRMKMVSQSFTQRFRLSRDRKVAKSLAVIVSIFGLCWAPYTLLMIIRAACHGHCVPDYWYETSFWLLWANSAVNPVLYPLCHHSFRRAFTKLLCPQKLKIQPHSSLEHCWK

[5] = target: Histamine H1 receptor (Homo sapiens) (UniProt P35367); assay: Displacement of [3H]pyrilamine from human H1 receptor expressed in monkey COS7 cells at 1 uM; assay type: cell-based; details: COS-7
Chain of Histamine H1 receptor (Homo sapiens) (P35367 whole entry): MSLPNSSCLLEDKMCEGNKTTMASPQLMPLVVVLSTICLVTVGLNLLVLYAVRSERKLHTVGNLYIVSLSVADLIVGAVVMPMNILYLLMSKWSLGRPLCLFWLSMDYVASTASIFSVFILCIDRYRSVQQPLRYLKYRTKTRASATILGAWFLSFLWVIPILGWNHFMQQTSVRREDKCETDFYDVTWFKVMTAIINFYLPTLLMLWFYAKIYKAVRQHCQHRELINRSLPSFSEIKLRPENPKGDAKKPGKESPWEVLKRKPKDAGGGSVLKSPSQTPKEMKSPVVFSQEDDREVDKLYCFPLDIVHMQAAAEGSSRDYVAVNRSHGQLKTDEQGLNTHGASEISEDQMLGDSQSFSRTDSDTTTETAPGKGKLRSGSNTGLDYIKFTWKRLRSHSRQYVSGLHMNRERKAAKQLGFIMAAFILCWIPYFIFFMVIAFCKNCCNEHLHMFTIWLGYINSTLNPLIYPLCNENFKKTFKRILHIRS

Histamine H3 receptor [6] = target: T2, Histamine H3 receptor (Rattus norvegicus, UniProt Q9QYN8); assay: Displacement of [3H]N-alpha-methylhistamine from histamine H3 receptor in rat striatal membrane; assay type: cell membranes, Striatum
T2 sequence (Q9QYN8 whole entry): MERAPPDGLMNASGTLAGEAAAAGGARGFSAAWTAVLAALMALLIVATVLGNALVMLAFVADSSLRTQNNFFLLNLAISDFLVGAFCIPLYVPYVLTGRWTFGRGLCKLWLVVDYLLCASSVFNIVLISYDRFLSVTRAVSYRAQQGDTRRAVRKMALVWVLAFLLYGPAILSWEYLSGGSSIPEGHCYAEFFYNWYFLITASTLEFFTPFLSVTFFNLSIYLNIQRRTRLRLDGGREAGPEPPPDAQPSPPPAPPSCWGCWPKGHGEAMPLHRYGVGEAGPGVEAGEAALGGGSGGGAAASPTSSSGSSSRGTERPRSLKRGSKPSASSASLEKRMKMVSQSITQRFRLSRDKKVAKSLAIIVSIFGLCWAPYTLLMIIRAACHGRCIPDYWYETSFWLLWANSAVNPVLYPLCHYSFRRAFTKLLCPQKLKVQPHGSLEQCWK

[7] = target: Histamine H1 receptor (Homo sapiens) (UniProt P35367); assay: Displacement of [3H]pyrilamine from human H1 receptor expressed in monkey COS7 cells at 10 uM; assay type: cell-based; details: COS-7
[8] = target: Histamine H3 receptor (Rattus norvegicus) (UniProt Q9QYN8); assay: Displacement of [3H]N-alpha-methylhistamine from histamine H3 receptor in rat striatal membrane at 0.1 uM; assay type: cell membranes; details: Striatum
Chain of Histamine H3 receptor (Rattus norvegicus) (Q9QYN8 whole entry): as above

[9] = target: Histamine H3 receptor (Rattus norvegicus) (UniProt Q9QYN8); assay: Displacement of [3H]N-alpha-methylhistamine from histamine H3 receptor in rat striatal membrane at 1 uM; assay type: cell membranes; details: Striatum
Histamine H3 receptor [10] = target: T1, Histamine H3 receptor; assay: Displacement of [3H]N-alpha-methylhistamine from human cloned histamine H3 receptor expressed in monkey COS7 cells at 1 uM; assay type: cell-based; details: COS-7
Histamine H3 receptor [11] = target: T1, Histamine H3 receptor; assay: Displacement of [3H]N-alpha-methylhistamine from human cloned histamine H3 receptor expressed in monkey COS7 cells at 0.1 uM; assay type: cell-based; details: COS-7
[12] = target: Histamine H2 receptor (Homo sapiens) (UniProt P25021); assay: Displacement of [3H]tiotidine from human H2 receptor expressed in monkey COS7 cells at 1 uM; assay type: cell-based; details: COS-7
Histamine H3 receptor [13] = target: T2, Histamine H3 receptor; assay: Antagonist activity at histamine H3 receptor in rat forebrain assessed as inhibition of [3H]histamine release from synaptosomes; assay type: functional, subcellular, Brain

Chain of Histamine H2 receptor (Homo sapiens) (P25021 whole entry): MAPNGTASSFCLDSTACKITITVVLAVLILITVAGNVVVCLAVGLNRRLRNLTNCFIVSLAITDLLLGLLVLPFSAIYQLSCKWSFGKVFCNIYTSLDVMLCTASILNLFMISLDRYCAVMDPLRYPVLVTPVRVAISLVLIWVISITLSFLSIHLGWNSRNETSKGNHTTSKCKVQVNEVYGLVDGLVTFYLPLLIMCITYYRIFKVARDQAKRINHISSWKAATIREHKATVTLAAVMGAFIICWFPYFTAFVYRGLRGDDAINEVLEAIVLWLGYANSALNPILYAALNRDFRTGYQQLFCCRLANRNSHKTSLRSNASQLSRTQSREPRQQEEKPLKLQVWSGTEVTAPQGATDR
Chain of Histamine H4 receptor (Homo sapiens) (Q9H3N8 whole entry): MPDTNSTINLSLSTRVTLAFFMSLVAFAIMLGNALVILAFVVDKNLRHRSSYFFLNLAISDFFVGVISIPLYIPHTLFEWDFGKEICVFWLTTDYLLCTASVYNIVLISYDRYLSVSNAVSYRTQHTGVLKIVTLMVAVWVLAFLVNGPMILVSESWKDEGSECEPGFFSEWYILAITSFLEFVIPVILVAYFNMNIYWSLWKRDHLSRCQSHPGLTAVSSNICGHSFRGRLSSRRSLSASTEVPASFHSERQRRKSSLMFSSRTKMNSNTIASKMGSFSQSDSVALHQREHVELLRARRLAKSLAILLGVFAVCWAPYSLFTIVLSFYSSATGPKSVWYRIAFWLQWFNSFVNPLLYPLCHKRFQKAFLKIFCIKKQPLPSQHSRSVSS

| Compound | inhibition [1] [%] | inhibition [2] [%] | inhibition [3] [%] | Ki (Histamine H3 receptor [4]) [nM] | inhibition [5] [%] | Ki (Histamine H3 receptor [6]) [nM] | inhibition [7] [%] | inhibition [8] [%] | inhibition [9] [%] | inhibition (Histamine H3 receptor [10]) [%] | inhibition (Histamine H3 receptor [11]) [%] | inhibition [12] [%] | IC50 (Histamine H3 receptor [13]) [nM] |
| --- | --- | --- | --- | --- | --- | --- | --- | --- | --- | --- | --- | --- | --- |
| C[C@@H]1CCCN1CCN1CCN(CCN2CCC[C@@H]2C)C1=C(C#N)C#N | 6 | -9 | -3 | 0.47 | -3 | 0.77 | 7 | – | – | – | – | – | – |
| CN1CCN(CCN2CCN(CCN3CCCCC3)C2=C(C#N)C#N)CC1 | – | – | – | – | – | – | – | 43 | 82 | 74 | 37 | – | – |
| C[C@H]1CCCN1CCN1CCN(CCN2CCC[C@@H]2C)C1=C(C#N)C#N | 9 | -2 | 0 | 0.34 | 8 | 0.48 | 14 | – | – | – | – | 2 | 1.9 |
| CCN(CCCN(C)C)CCN1CCN(Cc2cccc3ccccc23)C1=C(C#N)C#N | – | – | – | 83 | – | 75 | – | – | – | – | – | – | – |
| CC1CCCN1CCN1CCN(CCN2CCCC2C)C1=C(C#N)C#N (racemic) | -8 | 0 | -7 | 0.33 | 10 | 0.68 | 21 | – | – | – | – | 1 | 4.9 |
| N#CC(C#N)=C1N(CCCCN2CCCCC2)CCN1CCCCN1CCCCC1 | – | – | – | – | – | – | – | 51 | 85 | 68 | 43 | – | – |
| N#CC(C#N)=C1N(CCN2CCCCC2)CCN1CCN1CCC(O)C1 (racemic) | – | – | – | – | – | – | – | 57 | 86 | 70 | 49 | – | – |
| c1cc(OCCCN2CCCCC2)ccc1CN1CCCCC1 [JNJ-5207852] | – | – | – | – | – | 1.26 | – | – | – | – | – | – | – |
| C[C@@H]1CCCN1CCN1CCN(CCN2CCC[C@H]2C)C1=C(C#N)C#N | 9 | -1 | 8 | 1.3 | 0 | 1.1 | -4 | – | – | – | – | -7 | – |
| N#CC(C#N)=C1N(CCN2CCCCC2)CCN1CCN1CCCCC1 | – | – | – | 24 | – | 55 | – | – | – | – | – | – | – |
| N#CC(C#N)=C1N(CCCN2CCCCC2)CCN1Cc1cccc2ccccc12 | – | – | – | 36 | – | 690 | – | – | – | – | – | – | – |
| N#CC(C#N)=C1N(CCCCN2CCCCC2)CCN1CCN1CCCCC1 | – | – | – | 16 | – | 8.6 | – | – | – | – | – | – | – |
| N#CC(C#N)=C1N(CCN2CCCCC2)CCN1CCN1CCOCC1 | – | – | – | – | – | – | – | 44 | 82 | 69 | 37 | – | – |
| CC1CCCN1CCN1CCN(CCN2CCCCC2)C1=C(C#N)C#N (racemic) | 2 | -4 | 6 | 0.38 | 5 | 0.69 | 9 | – | – | – | – | -8 | – |
| N#CC(C#N)=C1N(CCCN2CCCCC2)CCN1CCCN1CCCCC1 | 11 | -4 | -1 | 2.4 | 3 | 2.6 | 21 | – | – | – | – | -5 | 28 |
| N#CC(C#N)=C1N(CCCCN2CCCCC2)CCN1CCCN1CCCCC1 | – | – | – | – | – | – | – | 65 | 88 | 74 | 48 | – | – |
| N#CC(C#N)=C1N(CCCN2CCCCC2)CCN1CCN1CCCCC1 | – | – | – | 6.6 | – | 6.3 | – | – | – | – | – | – | – |

Reference: ChEMBL document CHEMBL1141546, “Diamine derivatives containing imidazolidinylidene propanedinitrile as a new class of histamine H3 receptor antagonists. Part I” (Bioorg Med Chem Lett, 2008)
